Assay results from PubChem BioAssay AID1963983 (Molecular Pharmacology Branch, DTP, NCI, 2024).

System: 186277-243-T-J2-PDC multi-cell spheroid viability
Test: Anticancer human tumor 186277-243-T-J2-PDC patient-derived colon adenocarcinoma cell line growth inhibition [PI3K]
Conditions: for IC50: curve of first compound; for viability, T/C: stronger effect = lower value
In short: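 Tumor cells grown as multi-cell spheroids with HUVEC endothelial cells and MSC fibroblast-like stroma were treated with targeted agents combined with inavolisib, alpelisib, duvelisib or copanlisib. Doses fell in half-log steps from near clinical Cmax, else from 10 microM. Viability was measured.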

[1] = second compound 0.0316 µM, first compound 0.0316 µM
[2] = second compound 0.0316 µM, first compound 0.1 µM
[3] = second compound 0.1 µM, first compound 0.0316 µM
[4] = second compound 0.1 µM, first compound 0.1 µM
[5] = second compound 0.316 µM, first compound 0.0316 µM
[6] = second compound 0.316 µM, first compound 0.1 µM
[7] = second compound 1 µM, first compound 0.0316 µM
[8] = second compound 1 µM, first compound 0.1 µM
[9] = second compound 3.16 µM, first compound 0.0316 µM
[10] = second compound 3.16 µM, first compound 0.1 µM
[11] = second compound 10 µM, first compound 0.0316 µM
[12] = second compound 10 µM, first compound 0.1 µM
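Also: spheroids exposed to compounds for seven days before viability reading.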
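For viability, T/C in this document: 100% = DMSO vehicle control viability.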

C[C@@H](NC(=O)c1ncnc(N)c1Cl)c1ncc(C(=O)Nc2cc(C(F)(F)F)c(Cl)cn2)s1 + Cc1nc(NC(=O)N2CCCC2C(N)=O)sc1-c1ccnc(C(C)(C)C(F)(F)F)c1
IC50 (second compound 0.0316 µM): > 10 µM | IC50 (second compound 0.1 µM): > 10 µM | IC50 (second compound 0.316 µM): 8.1 µM | IC50 (second compound 1 µM): 4.32 µM | IC50 (second compound 3.16 µM): 0.382 µM | IC50 (second compound 10 µM): < 0.0316 µM | viability, T/C [1]: 87.8% | viability, T/C [2]: 78.3% | viability, T/C (second compound 0.0316 µM, first compound 0.316 µM): 101% | viability, T/C (second compound 0.0316 µM, first compound 1 µM): 99.5% | viability, T/C (second compound 0.0316 µM, first compound 3.16 µM): 102% | viability, T/C (second compound 0.0316 µM, first compound 10 µM): 78.4% | viability, T/C [3]: 92.9% | viability, T/C [4]: 90.8% | viability, T/C (second compound 0.1 µM, first compound 0.316 µM): 93.9% | viability, T/C (second compound 0.1 µM, first compound 1 µM): 108% | viability, T/C (second compound 0.1 µM, first compound 3.16 µM): 99.2% | viability, T/C (second compound 0.1 µM, first compound 10 µM): 72% | viability, T/C [5]: 104% | viability, T/C [6]: 107% | viability, T/C (second compound 0.316 µM, first compound 0.316 µM): 105% | viability, T/C (second compound 0.316 µM, first compound 1 µM): 88.1% | viability, T/C (second compound 0.316 µM, first compound 3.16 µM): 85.8% | viability, T/C (second compound 0.316 µM, first compound 10 µM): 42.1% | viability, T/C [7]: 103% | viability, T/C [8]: 88.5% | viability, T/C (second compound 1 µM, first compound 0.316 µM): 102% | viability, T/C (second compound 1 µM, first compound 1 µM): 91.2% | viability, T/C (second compound 1 µM, first compound 3.16 µM): 62.8% | viability, T/C (second compound 1 µM, first compound 10 µM): 15.7% | viability, T/C [9]: 77.8% | viability, T/C [10]: 65.8% | viability, T/C (second compound 3.16 µM, first compound 0.316 µM): 54.9% | viability, T/C (second compound 3.16 µM, first compound 1 µM): 33.3% | viability, T/C (second compound 3.16 µM, first compound 3.16 µM): 12.9% | viability, T/C (second compound 3.16 µM, first compound 10 µM): 6% | viability, T/C [11]: 18.7% | viability, T/C [12]: 18.9% | viability, T/C (second compound 10 µM, first compound 0.316 µM): 14.2% | viability, T/C (second compound 10 µM, first compound 1 µM): 4.89% | viability, T/C (second compound 10 µM, first compound 3.16 µM): 5.43% | viability, T/C (second compound 10 µM, first compound 10 µM): 0.25%

Cn1ncnc1[C@H]1c2n[nH]c(=O)c3cc(F)cc(c23)N[C@@H]1c1ccc(F)cc1 + Cc1nc(NC(=O)N2CCCC2C(N)=O)sc1-c1ccnc(C(C)(C)C(F)(F)F)c1
IC50 (second compound 0.0316 µM): > 0.1 µM | IC50 (second compound 0.1 µM): > 0.1 µM | IC50 (second compound 0.316 µM): > 0.1 µM | IC50 (second compound 1 µM): > 0.1 µM | IC50 (second compound 3.16 µM): 0.00254 µM | IC50 (second compound 10 µM): < 0.000316 µM | viability, T/C (second compound 0.0316 µM, first compound 0.000316 µM): 86.8% | viability, T/C (second compound 0.0316 µM, first compound 0.001 µM): 82.2% | viability, T/C (second compound 0.0316 µM, first compound 0.00316 µM): 94.5% | viability, T/C (second compound 0.0316 µM, first compound 0.01 µM): 96.9% | viability, T/C [1]: 112% | viability, T/C [2]: 92.7% | viability, T/C (second compound 0.1 µM, first compound 0.000316 µM): 114% | viability, T/C (second compound 0.1 µM, first compound 0.001 µM): 99.6% | viability, T/C (second compound 0.1 µM, first compound 0.00316 µM): 97.1% | viability, T/C (second compound 0.1 µM, first compound 0.01 µM): 117% | viability, T/C [3]: 116% | viability, T/C [4]: 108% | viability, T/C (second compound 0.316 µM, first compound 0.000316 µM): 114% | viability, T/C (second compound 0.316 µM, first compound 0.001 µM): 113% | viability, T/C (second compound 0.316 µM, first compound 0.00316 µM): 112% | viability, T/C (second compound 0.316 µM, first compound 0.01 µM): 107% | viability, T/C [5]: 104% | viability, T/C [6]: 90.4% | viability, T/C (second compound 1 µM, first compound 0.000316 µM): 101% | viability, T/C (second compound 1 µM, first compound 0.001 µM): 94.9% | viability, T/C (second compound 1 µM, first compound 0.00316 µM): 99.9% | viability, T/C (second compound 1 µM, first compound 0.01 µM): 91.6% | viability, T/C [7]: 85.5% | viability, T/C [8]: 65.9% | viability, T/C (second compound 3.16 µM, first compound 0.000316 µM): 64.3% | viability, T/C (second compound 3.16 µM, first compound 0.001 µM): 52.7% | viability, T/C (second compound 3.16 µM, first compound 0.00316 µM): 45.9% | viability, T/C (second compound 3.16 µM, first compound 0.01 µM): 46.9% | viability, T/C [9]: 43.9% | viability, T/C [10]: 33.6% | viability, T/C (second compound 10 µM, first compound 0.000316 µM): 13.6% | viability, T/C (second compound 10 µM, first compound 0.001 µM): 12% | viability, T/C (second compound 10 µM, first compound 0.00316 µM): 14.8% | viability, T/C (second compound 10 µM, first compound 0.01 µM): 17.4% | viability, T/C [11]: 11.3% | viability, T/C [12]: 8.17%
